≈ marks a conversion by molar mass, not a printed value. Where two headings read alike, the source gives them in different places.
Key:
M. suipneumoniae JF 435 = test: MIC against mycoplasma in vitro; type: cell-based; details: Mesomycoplasma hyopneumoniae, JF435, 144 h
M. suipneumoniae HK(2) = test: MIC against mycoplasma in vitro; type: cell-based; details: Mesomycoplasma hyopneumoniae, 144 h
[1] = system: M. suipneumoniae J2206/183^b; test: MIC against mycoplasma in vitro; type: cell-based; details: Mesomycoplasma hyopneumoniae, 144 h
M. suipneumoniae MS 16 = test: MIC against mycoplasma in vitro; type: cell-based; details: Mesomycoplasma hyopneumoniae, MS16, 144 h; M. suipneumoniae MS 16; 6 days, 37° C.; read-out: MIC
M. suipneumoniae LABER = test: MIC against mycoplasma in vitro; type: cell-based; details: Mesomycoplasma hyopneumoniae, 144 h
M. suipneumoniae TAM 6N = test: MIC against mycoplasma in vitro; type: cell-based; details: Mesomycoplasma hyopneumoniae, TAM6N, 144 h
[2] = system: M. suipneumoniae ATCC 25095; test: MIC against mycoplasma in vitro; type: cell-based; details: Mesomycoplasma hyopneumoniae, ATCC25095, 144 h
[3] = system: M. suipneumoniae NCTC 10110; test: MIC against mycoplasma in vitro; type: cell-based; details: Mesomycoplasma hyopneumoniae, NCTC10110, 144 h
M. hyorhinis ATCC 23234 = test: MIC against mycoplasma in vitro; type: cell-based; details: Mesomycoplasma hyorhinis, ATCC23234, 144 h
M. hyorhinis ATCC 25021 = test: MIC against mycoplasma in vitro; type: cell-based; details: Mesomycoplasma hyorhinis, ATCC25021, 144 h
[4] = system: M. hyosynoviae ATCC 25591; test: MIC against mycoplasma in vitro; type: cell-based; details: 144 h; M. hyosynoviae ATCC 25591; 6 days, 37° C.; read-out: MIC
M. dispar NCTC 10125 = test: MIC against mycoplasma in vitro; type: cell-based; details: 144 h
M. pneumoniae ATCC 15492 = test: MIC against mycoplasma in vitro; type: cell-based; details: Mycoplasmoides pneumoniae, ATCC15492, 144 h
E. coli ESS = test: MIC against human bacteria in vitro; type: cell-based; details: Escherichia coli; E. coli ESS; 5% chocolated horse blood agar, 18 hours; read-out: MIC
P. mirabilis 889 = test: MIC against human bacteria in vitro; type: cell-based; details: Proteus mirabilis; P. mirabilis 889; 5% chocolated horse blood agar, 18 hours; read-out: MIC
K. aerogenes A = test: MIC against human bacteria in vitro; type: cell-based; details: Klebsiella aerogenes; K. aerogenes A; 5% chocolated horse blood agar, 18 hours; read-out: MIC
[5] = system: Pasteurella multocida 1633; test: MIC against human bacteria in vitro; type: cell-based; details: Pasteurella multocida 1633; 5% chocolated horse blood agar, 18 hours; read-out: MIC
Bacillus subtilis 6633 = test: MIC against human bacteria in vitro; type: cell-based; details: Bacillus subtilis 6633; 5% chocolated horse blood agar, 18 hours; read-out: MIC
Sarcina lutea 8340 = test: MIC against human bacteria in vitro; type: cell-based; details: Micrococcus luteus; Sarcina lutea 8340; 5% chocolated horse blood agar, 18 hours; read-out: MIC
Staph. aureus Oxford = test: MIC against human bacteria in vitro; type: cell-based; details: Staphylococcus aureus; Staph. aureus Oxford; 5% chocolated horse blood agar, 18 hours; read-out: MIC
Staph. aureus Russell = test: MIC against human bacteria in vitro; type: cell-based; details: Staphylococcus aureus; Staph. aureus Russell; 5% chocolated horse blood agar, 18 hours; read-out: MIC
Staph. aureus W2827 = test: MIC against human bacteria in vitro; type: cell-based; details: Staphylococcus aureus; Staph. aureus W2827; 5% chocolated horse blood agar, 18 hours; read-out: MIC
Strep. faecalis I = test: MIC against human bacteria in vitro; type: cell-based; details: Enterococcus faecalis; Strep. faecalis I; 5% chocolated horse blood agar, 18 hours; read-out: MIC
[6] = system: Strep. pyogenes R80/421-A; test: MIC against human bacteria in vitro; type: cell-based; details: Streptococcus pyogenes
Strep. spp. 64/848-C = test: MIC against human bacteria in vitro; type: cell-based; details: Strep. spp. 64/848-C; 5% chocolated horse blood agar, 18 hours; read-out: MIC
E. coli E1 = test: MIC against veterinary bacteria in vitro; details: Escherichia coli, E1, 18 h
Method: (§1) The activity of the compounds of the Examples against various veterinarily important bacteria, was assayed in vitro using two-fold serial dilutions in Diagnostic Sensitivity Test Agar inoculated with 10^4 organisms.

S. typhimurium S18 = test: MIC against veterinary bacteria in vitro; details: Salmonella enterica, TYPHIMURIUM, 18 h
Method: as §1

Bord. bronchiseptica B08 = test: MIC against veterinary bacteria in vitro; details: Bordetella bronchiseptica, B08, 18 h
Method: as §1

[7] = system: Staph. aureus B4 (pen. resistant); test: MIC against veterinary bacteria in vitro; details: Staphylococcus aureus, 18 h
Method: as §1

[8] = system: Staph. aureus 152 (pen. sens); test: MIC against veterinary bacteria in vitro; details: Staphylococcus aureus, 18 h
Method: as §1

[9] = system: Strep. suis (group D) SPS11; test: MIC against veterinary bacteria in vitro; details: Streptococcus suis, 18 h
Method: as §1

Strep. uberis SPU1 = test: MIC against veterinary bacteria in vitro; details: Streptococcus uberis, SPU1, 18 h
Method: as §1

Past. multocida PA2 = test: MIC against veterinary bacteria in vitro; details: Pasteurella multocida, PA2, 18 h
Method: as §1

Row | SMILES | MIC (M. suipneumoniae JF 435) [µg/mL] | MIC (M. suipneumoniae HK(2)) [µg/mL] | MIC (M. suipneumoniae MS 16) [µg/mL] | MIC (M. suipneumoniae TAM 6N) [µg/mL] | MIC [4] [µg/mL] | MIC (E. coli ESS) [µg/mL] | MIC (P. mirabilis 889) [µg/mL] | MIC (K. aerogenes A) [µg/mL] | MIC [5] [µg/mL] | MIC (Bacillus subtilis 6633) [µg/mL] | MIC (Sarcina lutea 8340) [µg/mL] | MIC (Staph. aureus Oxford) [µg/mL] | MIC (Staph. aureus Russell) [µg/mL] | MIC (Staph. aureus W2827) [µg/mL] | MIC (Strep. faecalis I) [µg/mL] | MIC (Strep. spp. 64/848-C) [µg/mL] | MIC (E. coli E1) [µg/mL] | MIC (S. typhimurium S18) [µg/mL] | MIC (Bord. bronchiseptica B08) [µg/mL] | MIC [7] [µg/mL] | further results
1 | C/C(=C\c1ncc(CCCCCCCCO)o1)C[C@@H]1OC[C@H](C[C@@H]2O[C@H]2[C@@H](C)[C@H](C)O)[C@@H](O)[C@H]1O [Example 19, 5-(8-Hydroxyoctyl)-2-(1-normon-2-yl) oxazole A] | 2.5 (≈ 5.04 µM) | 2.5 (≈ 5.04 µM) | 0.5 (≈ 1.01 µM) | 2.5 (≈ 5.04 µM) | 0.5 (≈ 1.01 µM) | 16 (≈ 32.3 µM) | > 128 | > 128 | 32 (≈ 64.6 µM) | 4 (≈ 8.07 µM) | 128 (≈ 258 µM) | 4 (≈ 8.07 µM) | 4 (≈ 8.07 µM) | 4 (≈ 8.07 µM) | > 128 | 16 (≈ 32.3 µM) | > 80 | > 80 | > 80 | 1.25 (≈ 2.52 µM) | MIC ([1]; M. suipneumoniae J2206/183^b, 6 days, 37° C., read-out: MIC): 5 µg/mL (≈ 10.1 µM); MIC (M. suipneumoniae LABER): 1 µg/mL (≈ 2.02 µM); MIC [2]: 1 µg/mL (≈ 2.02 µM); MIC ([3]; M. suipneumoniae NCTC 10110, 6 days, 37° C., read-out: MIC): 5 µg/mL (≈ 10.1 µM); MIC (M. hyorhinis ATCC 23234): 1 µg/mL (≈ 2.02 µM); MIC (M. hyorhinis ATCC 25021): 1 µg/mL (≈ 2.02 µM); MIC (M. dispar NCTC 10125; M. dispar NCTC 10125, 6 days, 37° C., read-out: MIC): 0.5 µg/mL (≈ 1.01 µM); MIC (M. pneumoniae ATCC 15492): 1 µg/mL (≈ 2.02 µM); MIC ([6]; Strep. pyogenes R80/421-A, 5% chocolated horse blood agar, 18 hours, read-out: MIC): 2 µg/mL (≈ 4.04 µM); MIC [8]: 1.25 µg/mL (≈ 2.52 µM); MIC [9]: 80 µg/mL (≈ 161 µM); MIC (Strep. uberis SPU1): 0.625 µg/mL (≈ 1.26 µM)
2 | C/C(=C\c1ncc(-c2ccsc2)o1)C[C@@H]1OC[C@H](C[C@@H]2O[C@H]2[C@@H](C)[C@H](C)O)[C@@H](O)[C@H]1O [Example 20, 5-(3-Thienyl)-2-(1-normon-2-yl) oxazole A] | 1 (≈ 2.22 µM) | 1 (≈ 2.22 µM) | 0.5 (≈ 1.11 µM) | 1 (≈ 2.22 µM) | 0.5 (≈ 1.11 µM) | 4 (≈ 8.9 µM) | > 128 | > 128 | 4 (≈ 8.9 µM) | 0.5 (≈ 1.11 µM) | > 128 | 4 (≈ 8.9 µM) | 4 (≈ 8.9 µM) | 4 (≈ 8.9 µM) | > 128 | 2 (≈ 4.45 µM) | > 80 | > 80 | 80 (≈ 178 µM) | 0.63 (≈ 1.4 µM) | MIC [1]: 1 µg/mL (≈ 2.22 µM); MIC (M. suipneumoniae LABER; M. suipneumoniae LABER, 6 days, 37° C., read-out: MIC): 0.5 µg/mL (≈ 1.11 µM); MIC ([2]; M. suipneumoniae ATCC 25095, 6 days, 37° C., read-out: MIC): 0.5 µg/mL (≈ 1.11 µM); MIC [3]: 1 µg/mL (≈ 2.22 µM); MIC (M. hyorhinis ATCC 23234; M. hyorhinis ATCC 23234, 6 days, 37° C., read-out: MIC): 0.5 µg/mL (≈ 1.11 µM); MIC (M. hyorhinis ATCC 25021; M. hyorhinis ATCC 25021, 6 days, 37° C., read-out: MIC): 0.5 µg/mL (≈ 1.11 µM); MIC (M. dispar NCTC 10125): 0.25 µg/mL (≈ 0.556 µM); MIC (M. pneumoniae ATCC 15492; M. pneumoniae ATCC 15492, 6 days, 37° C., read-out: MIC): 0.5 µg/mL (≈ 1.11 µM); MIC ([6]; R80/421A, 18 h): 0.25 µg/mL (≈ 0.556 µM); MIC (Past. multocida PA2): 0.312 µg/mL (≈ 0.694 µM); MIC [8]: 0.63 µg/mL (≈ 1.4 µM); MIC [9]: 40 µg/mL (≈ 89 µM); MIC (Strep. uberis SPU1): 0.156 µg/mL (≈ 0.347 µM)

— patent US5041567A, “Antibacterial monic acid derivatives” (Beecham Group plc, priority 1982, dated 1991)
